The values that follow come from US4665098A, “Pharmaceutical composition of N-(4-hydroxyphenyl) retinamide having increased bioavailability” (McNeilab, Inc., priority 1985, dated 1987).

One data set deals with mammary cancer. Conditions: rats, induced with N-nitroso-N-methyl urea; cited from earlier work.
The nature of data set [1]: Bioavailability of HPR in vivo (general statements). Conditions: small particle size of the HPR.
For a further data set, the system named is rats. The conditions noted are these: oral; cited from earlier work.
The conditions of data set [2]: one formulation of HPR, 5 mg/kg, rats, cited from earlier work.
For data set [3] the following is noted: cited from earlier work.
Data set [4] can be described thus: Stability of 4-EPR internal standard solution stored in the refrigerator. It is filed as physicochemical. Conditions: six months. The protocol: Assay is by high pressure liquid chromatography using a Waters HPLC System consisting of a Model 6000A solvent delivery system with a Model 440 UV absorbance detector (365 nm filter), and either a Model U6K injector (2 ml sample loop) or a Waters Intelligent Sample Processor (WISP™). […] The column is a 10 cm×4.6 mm (i.d.) Brownlee Labs RP-18 Spheri-5 (5μ) stainless steel column equipped with a 3 cm×4.6 mm (i.d.) Brownlee Labs RP-18 (10μ) stainless steel guard column. The mobile phase is acetonitrile:water:glacial acetic acid (75:23:2, v/v/v) and is prepared in 2 liter quantities. The components of the mobile phase are mixed together, filtered through a 5 μm Millipore® filter apparatus and degassed under vacuum for one-half hour while stirring. The internal standard for the assay is N-(4-ethoxyphenyl)retinamide (4-EPR). […]
The procedure of Example 1 is followed using a 4 -EPR internal standard containing 100 μg/ml which is prepared by weighing 10.0 mg of 4-EPR into a 100 ml volumetric flask and bringing to volume with methanol. A 1/2000 dilution of this stock solution is made by transferring 0.1 ml of 100 μg/ml 4-EPR solution into a 200 ml volumetric flask and bringing to volume with methanol. The resulting solution contains 50 ng/ml of 4-EPR. […] For the assay, a 1.0 ml aliquot of plasma is transferred to a 15 ml screw-cap conical bottomed glass centrifuge tube. […]

The conditions of data set [5]: cited from earlier work. The source holds these as a separate data set.

As for `CC1=C(/C=C/C(C)=C/C=C/C(C)=C/C(=O)Nc2ccc(O)cc2)C(C)(C)CCC1` [HPR, N-(4-Hydroxyphenyl)-all-trans-retinamide], the “Protection against mammary cancer” value in the data set with mammary cancer was “protects against mammary cancer in rats”. For the same compound, the “Effect of small particle size on bioavailability” value in data set [1] is “tends to aid bioavailability”. In addition, in the data set on rats, the “Toxicity relative to retinyl acetate and retinoic acid” value is “less toxic when given orally to rats then retinyl acetate and retinoic acid”. Besides, in data set [2] (oral), the Half-life of elimination was 12 h and the Oral absorption entry is recorded as “incompletely absorbed after oral administration”. Also, in data set [2], the Elimination result is recorded as “eliminated slowly”. Besides, in data set [3], the Solubility in water result is “virtually insoluble in water”.
As to `CCOc1ccc(NC(=O)C=C(C)C=CC=C(C)C=CC2=C(C)CCCC2(C)C)cc1` [Formulation 4-EPR, N-(4-ethoxyphenyl)retinamide], the “Stability of 4-EPR solution” value in data set [4] (50 ng/ml in methanol) and in data set [4] (500 ng/ml in acetonitrile) was “without signs of decomposition” in each case.
In the case of `CC1=C(/C=C/C(C)=C/C=C/C(C)=C\C(=O)O)C(C)(C)CCC1` [isotretinoin], the “Effect of food intake on bioavailability” value in data set [5] is on record as “affected by food intake”.
